The values that follow come from patent US11406622B2, “Glaucocalyxin a derivative, pharmaceutically acceptable salt thereof, or pharmaceutical composition thereof and uses thereof in preparation of drugs for treating psoriasis” (SUZHOU PHARMAVAN CO., LTD., priority 2017, dated 2022).

pIC50: −log10 of the molar value. Read-outs that look alike come from different tables or passages of the source.

Assay [1] deals with human keratinocytes (HaCaT). As to the kind of experiment: Effect on proliferation of human keratinocytes, CCK-8, 48 h (Example 5). The class given is cell-based. The conditions noted are these: 48 hours of treatment. As to the method: In this example, the glaucocalyxin A derivatives of the present application, or pharmaceutically acceptable salts thereof, were examined for the effect on the proliferation of human keratinocytes. In this example, the glaucocalyxin A derivatives as shown in Table 1 were examined by using the following procedure. A cell suspension was prepared and inoculated into three 96-well plates at 8000 cells in a volume of 150 μl per well, which were then cultured overnight in an incubator at 37° C., 5% CO2. On the next day, 50 μl of test compound solution at different concentrations was added to each well. Triplicate wells were set up for each concentration. A vehicle control group (without compound), a cell control group (without compound and vehicle), and a blank medium control group (without cells, a well for null adjustment) were also set up, and cultured for an additional 48 hours. CCK-8 staining working solution was added at 110 μL per well, and cultured for additional 1-4 h. At the end of the culture, the absorbances were measured at 450 nm (OD450 nm) on a Bio-Tek enzyme-linked immunosorbent assay. The results were expressed as the mean OD450 nm value of triplicates±standard deviation (x±sd). The Origin 7.0 was used for plotting and analysis. A fitting curve was obtained by plotting the OD value of each group against the logarithmic concentration of the test compound, and then the IC50 value was determined.

The subject of another assay is HaCaT keratinocytes. As to the kind of experiment: Time- and dose-dependent inhibition of proliferation of human keratinocytes, CCK-8 (Example 6). The class given is cell-based. As to the method: In this example, the glaucocalyxin A derivatives of the present application and pharmaceutically acceptable salts thereof were examined for the relationship between the inhibitory rate thereof on the proliferation of human keratinocytes and its concentration. Compound 23 as shown in Table 1 was used as an exemplary compound to be examined by using the following procedure.
A cell suspension was prepared and inoculated into three 96-well plates at 8000 cells in a volume of 150 μl per well, which were then cultured overnight in an incubator at 37° C., 5% CO2. On the next day, 50 μl of test compound solution at different concentrations was added to each well. Triplicate wells were set up for each concentration. A vehicle control group (without compound), a cell control group (without compound and without vehicle), and a blank medium control group (without cells, a well for null adjustment) were also set up, and cultured for additional 24, 48, and 72 hours. CCK-8 staining working solution was added at 110 μL per well, and cultured for additional 1-4 h. At the end of the culture, the absorbances were measured at 450 nm (OD450 nm) on a Bio-Tek enzyme-linked immunosorbent assay. The results were expressed as the mean OD450 nm value of the triplicates±standard deviation (x±sd). Prism Graph was used for plotting and analysis. The cell inhibitory rate of each group was calculated according to the mean value of the treatment group with each compound at each concentration and the mean value of the vehicle control group, that is, the cell inhibitory rate (%)=[1−(the mean value of the treatment group−the blank control group)/(the mean value of the vehicle control group−the blank control group)]×100%. A fitting curve was obtained by plotting the cell inhibitory rate of each group against the logarithmic concentration (Log C) of the test compound, and then the IC50 value was determined.

Broadly, the IC50 is the concentration that inhibits the measured activity by half. Low values mean greater potency in that assay, high ones weaker potency in that assay. The term pIC50 denotes −log10 of the IC50, conventionally taken in molar units. Consider `Br.C=C1C(=O)C23C(O)CC4C(C)(C)c5nc(N(C)C)sc5CC4(C)C2CCC1C3O` (stereo not shown) [Compound 23], for which the half-maximal inhibitory concentration (IC50) in assay [1] was 0.93 µM. Moreover, the pIC50 was 5.71 with HaCaT keratinocytes (24 h, read-out: IC50 at 24 h); 6.03 in the assay with HaCaT keratinocytes (48 h, read-out: IC50 at 48 h); 6.10 in the assay on HaCaT keratinocytes (72 h, read-out: IC50 at 72 h).
